Results published in ChEMBL document CHEMBL1150838, “Cytotoxic constituents of the fruits of Cananga odorata” (J Nat Prod, 2001).
In brackets after ≈: the same amount, converted by molar mass.

Key:
[1] = tested on: HepG2; assay: Cytotoxicity against human HepG2 cells by MTT assay; type: functional, cell-based
[2] = Cytotoxicity against human HepG2(2.2.15) cells by MTT assay; type: functional, cell-based

Row | SMILES | IC50 [1] | IC50 [2]
1 | CC1=C2C[C@H](C(C)(C)O[C@@H]3O[C@@H](C)[C@H](O)[C@@H](O)[C@H]3O)CC[C@@]2(C)CCC1 | 3.9 µg/mL (≈ 10.6 µM) | 10.6 µg/mL (≈ 28.8 µM)
2 | Cc1ccnc2c1C(=O)c1ccccc1C2=O [CLEISTOPHOLINE] | 0.22 µg/mL (≈ 0.986 µM) | 0.54 µg/mL (≈ 2.42 µM)
3 | Cc1ccc2c(n1)C[C@H](C(C)(C)O)CC[C@H]2C [CANANODINE] | 0.22 µg/mL (≈ 0.943 µM) | 3.8 µg/mL (≈ 16.3 µM)
4 | C[C@@H]1O[C@@H](OC(C)(C)[C@@H]2CC[C@@]3(C)CCC[C@@](C)(O)[C@@H]3C2)[C@H](O)[C@H](O)[C@H]1O | 0.01 µg/mL (≈ 0.0259 µM) | 0.36 µg/mL (≈ 0.931 µM)
5 | COc1cc(/C=C/C(=O)NCCc2ccc(O)cc2)ccc1O [N-TRANS-FERULOYL TYRAMINE] | 6.6 µg/mL (≈ 21.1 µM) | 1.9 µg/mL (≈ 6.06 µM)
6 | CC1=C2C[C@H](C(C)(C)O)CC[C@@]2(C)CCC1 | 1.5 µg/mL (≈ 6.75 µM) | 0.01 µg/mL (≈ 0.045 µM)
